Data set [1] is described as follows: Binding affinity to Bacillus anthracis PurE by Surface Plasmon Resonance analysis.
Data set [2] is described as follows: Binding affinity to Bacillus anthracis PurE by intrinsic tryptophan fluorescence analysis.
For data set [3], the system named is Bacillus anthracis. Description: Inhibition of Bacillus anthracis PurE using CAIR as substrate at 25 uM preincubated for 5 mins followed by substrate addition by UV spectroscopic analysis.
Data set [4] in a line: Aqueous solubility of the compound. It is filed as physicochemical.
Data set [5] concerns Bacillus anthracis. Description: Inhibition of Bacillus anthracis PurE using CAIR as substrate at 100 uM preincubated for 5 mins followed by substrate addition by UV spectroscopic analysis.
Data set [6] can be described thus: Binding affinity to Escherichia coli PurE by Surface Plasmon Resonance analysis.

The values that follow come from ChEMBL document CHEMBL3751775, “Identification of B. anthracis N(5)-carboxyaminoimidazole ribonucleotide mutase (PurE) active site binding compounds via fragment library screening” (Bioorg Med Chem, 2016).

The term Kd denotes a measure of binding affinity in units of concentration. For `NC(=S)N1CCc2ccccc21`, the Kd was determined as 35.3 µM in data set [1] and 35.7 µM in data set [2] (read-out: Kd).

Broadly, the inhibition is the relative decrease from the control value, in per cent. Read a high inhibition as a response far below the control. In the case of `CCc1ccc(C(=O)Nc2nncs2)s1`, the inhibition in the data set on Bacillus anthracis [3] came out at 49%. Also, the Kd in data set [1] is 13.5 µM; in data set [2] (read-out: Kd), 19.8 µM.

Take `Nc1cncn1[C@@H]1O[C@H](COP(=O)(O)O)[C@@H](O)[C@H]1O`: the Kd in data set [2] (read-out: Kd) is 283 µM.

Take `Cc1cc(C(=O)Nc2cccc(F)c2)no1`: the Kd in data set [1] is 79.8 µM; in data set [2] (read-out: Kd), 95.4 µM.

Turning to `CCOc1cc(CO)c(Br)cc1OC`, the Kd in data set [1] came out at 157 µM; in data set [2] (read-out: Kd), 367 µM.

As for `Oc1cc(Cl)c(Cl)cc1O`, the Kd is 103 µM in data set [1] and 182 µM in data set [2] (read-out: Kd).

As for `Nc1nn2c(-c3ccccc3)nnc2s1`, the Kd came out at 121 µM in data set [1] and 604 µM in data set [2] (read-out: Kd).

The solubility is the dissolved amount per volume that the medium holds. In turn, `O=C(O)c1ccc(O)c(O)c1` [PROTOCATECHUIC ACID] yielded a Kd in data set [1] of 274 µM. Also, in data set [4], the solubility is greater than 1200 µM.

For the molecule `COc1ccc(-c2cc(N)[nH]n2)cc1`, the Kd in data set [1] amounted to 149 µM; in data set [2] (read-out: Kd), 214 µM.

Regarding `Cc1ccc(C(N)c2ccncc2)cc1` (stereo not drawn), the results for the Kd in data set [1] and in data set [2] were 707 µM and “Not Active”, respectively.

In the case of `COc1ccc2ncc(N)cc2c1`, the Kd in data set [1] is 261 µM; in data set [2] (read-out: Kd), 73.8 µM.

For the molecule `Cc1ccc(C(=S)c2nnns2)cc1`, the results for the Kd in data set [1] and in data set [2] (read-out: Kd) were 60.8 µM and 81.3 µM, respectively. In the data set with Bacillus anthracis [5], this molecule came in with an inhibition of 36%.

In data set [1], `O=C(O)c1cc2cc(F)ccc2[nH]1` [5-FLUOROINDOLE-2-CARBOXYLIC ACID] came in with a Kd of 234 µM.

As for `Cc1cnc(NC(=O)c2ccoc2C)s1`, the Kd in data set [1] was determined as 20.3 µM; in data set [2] (read-out: Kd), 39.6 µM.

For `CCOc1ccccc1C(=S)N1CCOCC1`, the Kd was determined as 73 µM in data set [1] and 61.6 µM in data set [2] (read-out: Kd).

`Nc1c([N+](=O)[O-])ncn1[C@@H]1O[C@H](COP(=O)(O)O)[C@@H](O)[C@H]1O`: the Kd in data set [6] was determined as 0.086 µM.

Turning to `NCc1cc(-c2ccccc2Cl)on1`, the Kd worked out at 444 µM in data set [1] and 402 µM in data set [2] (read-out: Kd).
